Data: ChEMBL document CHEMBL5154769, “Discovery of the First-in-Class Agonist-Based SOS1 PROTACs Effective in Human Cancer Cells Harboring Various KRAS Mutations” (J Med Chem, 2022)
The source made the active and inactive calls. The rule behind the calls is not given here.

How the values were obtained:
[1] = biological target: von Hippel-Lindau disease tumor suppressor/Son of sevenless homolog 1/GTPase KRas (Homo sapiens) (UniProt Q07889+P01116+P40337); assay: Protac activity at SOS1/KRAS E3 ligase in human NCI-H358 cells assessed as KRAS protein level at 2.5 uM measured after 24 hr by […] analysis; format: cell-based
von Hippel-Lindau disease tumor suppressor/Son of sevenless homolog 1/GTPase KRas (Homo sapiens), sequence (P01116 whole entry, looked up): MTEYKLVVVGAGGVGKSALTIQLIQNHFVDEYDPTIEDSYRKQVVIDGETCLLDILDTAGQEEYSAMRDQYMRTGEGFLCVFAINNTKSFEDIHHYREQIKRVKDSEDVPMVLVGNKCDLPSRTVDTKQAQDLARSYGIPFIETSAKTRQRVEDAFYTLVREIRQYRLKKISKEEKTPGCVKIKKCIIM
von Hippel-Lindau disease tumor suppressor/Son of sevenless homolog 1/GTPase KRas (Homo sapiens), sequence (P40337 whole entry, looked up): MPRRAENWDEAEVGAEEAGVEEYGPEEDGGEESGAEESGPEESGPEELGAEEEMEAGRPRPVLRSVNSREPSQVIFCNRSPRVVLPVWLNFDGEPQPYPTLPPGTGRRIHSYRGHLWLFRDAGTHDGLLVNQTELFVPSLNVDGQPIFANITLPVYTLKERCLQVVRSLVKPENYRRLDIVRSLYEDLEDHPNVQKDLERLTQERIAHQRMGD
von Hippel-Lindau disease tumor suppressor/Son of sevenless homolog 1/GTPase KRas (Homo sapiens), sequence (Q07889 whole entry, looked up): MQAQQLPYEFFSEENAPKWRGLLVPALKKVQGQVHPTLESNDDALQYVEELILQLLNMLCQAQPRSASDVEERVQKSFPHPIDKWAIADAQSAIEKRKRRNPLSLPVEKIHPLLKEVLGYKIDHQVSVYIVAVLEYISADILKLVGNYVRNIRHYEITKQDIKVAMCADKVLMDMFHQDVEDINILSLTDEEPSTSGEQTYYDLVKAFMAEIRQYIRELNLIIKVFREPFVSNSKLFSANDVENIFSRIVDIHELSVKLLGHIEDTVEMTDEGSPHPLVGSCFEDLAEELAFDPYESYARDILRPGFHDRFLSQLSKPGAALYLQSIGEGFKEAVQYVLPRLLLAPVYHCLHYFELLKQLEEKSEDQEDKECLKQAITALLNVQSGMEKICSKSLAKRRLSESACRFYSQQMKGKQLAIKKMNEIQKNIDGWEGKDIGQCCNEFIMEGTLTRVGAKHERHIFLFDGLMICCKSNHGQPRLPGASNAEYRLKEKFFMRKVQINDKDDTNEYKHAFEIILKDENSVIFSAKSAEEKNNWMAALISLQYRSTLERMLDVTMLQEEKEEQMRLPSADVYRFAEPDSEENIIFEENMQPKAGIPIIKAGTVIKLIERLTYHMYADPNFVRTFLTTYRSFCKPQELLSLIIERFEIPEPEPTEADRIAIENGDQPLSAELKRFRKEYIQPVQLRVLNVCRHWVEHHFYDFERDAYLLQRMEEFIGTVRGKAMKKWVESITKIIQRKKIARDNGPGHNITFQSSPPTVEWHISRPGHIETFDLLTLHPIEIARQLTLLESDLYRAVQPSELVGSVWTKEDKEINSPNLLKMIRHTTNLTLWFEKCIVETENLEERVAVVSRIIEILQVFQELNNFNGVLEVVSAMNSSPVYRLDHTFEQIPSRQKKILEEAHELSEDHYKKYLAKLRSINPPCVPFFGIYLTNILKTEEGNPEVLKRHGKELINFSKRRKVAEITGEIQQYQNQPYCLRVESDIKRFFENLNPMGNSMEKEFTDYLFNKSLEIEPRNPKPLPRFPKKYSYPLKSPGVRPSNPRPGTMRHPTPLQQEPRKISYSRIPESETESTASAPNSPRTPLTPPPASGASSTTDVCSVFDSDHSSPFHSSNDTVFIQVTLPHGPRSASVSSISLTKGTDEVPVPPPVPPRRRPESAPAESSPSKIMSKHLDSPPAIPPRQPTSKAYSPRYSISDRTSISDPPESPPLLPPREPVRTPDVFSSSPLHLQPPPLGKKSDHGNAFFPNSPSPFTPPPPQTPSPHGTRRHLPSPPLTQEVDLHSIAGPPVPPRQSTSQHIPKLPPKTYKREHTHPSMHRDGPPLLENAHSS

[2] = biological target: T1, von Hippel-Lindau disease tumor suppressor/Son of sevenless homolog 1 (Homo sapiens, UniProt Q07889+P40337); assay: Protac activity at VHL/SOS1 in human NCI-H358 cells assessed as SOS1 protein degradation incubated for 24 hr by Western blot analysis; format: cell-based
Target sequence in this assay (Q07889 whole entry): as the sequence (Q07889 whole entry, looked up) above
Target sequence in this assay (P40337 whole entry): as the sequence (P40337 whole entry, looked up) above

[3] = biological target: T1, von Hippel-Lindau disease tumor suppressor/Son of sevenless homolog 1; assay: Protac activity at VHL/SOS1 in human NCI-H358 cells assessed as SOS1 protein degradation at 1 uM and measured after 4 to 24 hr by western blot analysis; format: cell-based; conditions: time 4-24 hrs
Mus musculus [4] = assay: In vivo inhibition of phosphorylated ERK level in BALB/c nude mouse xenografted with human NCI-H358 cells at 20 to 50 mg/kg, IT incubated for 21 days by immunohistochemistry analysis; format: functional, organism-based; conditions: dose 20-50 mg/kg, time 21.0 day
Homo sapiens [5] = species on record: Homo sapiens; assay: Binding affinity to SOS1/VCB E3 ligase (unknown origin) assessed as ternary complex formation by measuring hook effect incubated for 1 hr by HTRF assay
[6] = biological target: Von Hippel-Lindau disease tumor suppressor/Elongin B/Elongin C (Homo sapiens, UniProt P40337); assay: Binding affinity to VCB E3 ligase (unknown origin) assessed as binary equilibrium dissociation constant by surface plasmon resonance analysis; format: protein-complex assay
Von Hippel-Lindau disease tumor suppressor/Elongin B/Elongin C, sequence (P40337 whole entry, looked up): as above

[7] = Binding affinity to SOS1/VCB E3 ligase (unknown origin) assessed as ternary dissociation constant by surface plasmon resonance analysis; design: species or system Homo sapiens
Homo sapiens [8] = species on record: Homo sapiens; assay: Co-operativity factor, Ratio of Kd for Binding affinity to VCB E3 ligase (unknown origin) assessed as binary equilibrium dissociation constant to Kd for binding affinity to SOS1/VCB E3 ligase (unknown origin) assessed as ternary dissociation constant
[9] = biological target: von Hippel-Lindau disease tumor suppressor/Son of sevenless homolog 2 (Homo sapiens) (UniProt P40337+Q07890); assay: Protac activity at VHL/SOS2 in human NCI-H358 cells assessed as SOS2 mRNA level at 1 uM incubated for 24 to 72 hr by qRT PCR analysis; format: cell-based; conditions: time 24-72 hrs
ASPC1 = assay: Antiproliferative activity against human ASPC1 cells harboring KRAS G12D mutant assessed as cell growth inhibition incubated for 7 days by CellTiter-Glo 3D cell viability assay; format: functional, cell-based; conditions: ASPC1, 168 h
SK-LU-1 = assay: Antiproliferative activity against human SK-LU-1 cells harboring KRAS G12D mutant assessed as cell growth inhibition incubated for 7 days by CellTiter-Glo 3D cell viability assay; format: functional, cell-based; conditions: SK-LU-1, 168 h
SW-620 = assay: Antiproliferative activity against human SW620 cells harboring KRAS G12V mutant assessed as cell growth inhibition incubated for 7 days by CellTiter-Glo 3D cell viability assay; format: functional, cell-based; conditions: SW-620, 168 h
[10] = biological target: T2, von Hippel-Lindau disease tumor suppressor/Son of sevenless homolog 1 (Homo sapiens, UniProt Q07889+P40337, G12C); assay: Protac activity at VHL/SOS1 in human NCI-H358 cells harboring KRAS G12C mutant assessed as SOS1 protein degradation incubated for 24 hr by Western blot analysis; format: cell-based
T2 sequence (P40337 whole entry, looked up, stated change not applied): as the sequence (P40337 whole entry, looked up) above
T2 sequence (Q07889 whole entry, looked up, stated change not applied): as the sequence (Q07889 whole entry, looked up) above

[11] = biological target: T2, von Hippel-Lindau disease tumor suppressor/Son of sevenless homolog 1; assay: Protac activity at VHL/SOS1 in human MIA PaCa-2 cells harboring KRAS G12C mutant assessed as SOS1 protein degradation incubated for 24 hr by Western blot analysis; format: cell-based
[12] = biological target: von Hippel-Lindau disease tumor suppressor/Son of sevenless homolog 1 (Homo sapiens, UniProt Q07889+P40337, G12D); assay: Protac activity at VHL/SOS1 in human ASPC1 cells harboring KRAS G12D mutant assessed as SOS1 protein degradation incubated for 24 hr by Western blot analysis; format: cell-based
[13] = biological target: von Hippel-Lindau disease tumor suppressor/Son of sevenless homolog 1 (Homo sapiens, UniProt Q07889+P40337, G12V); assay: Protac activity at VHL/SOS1 in human SW-620 cells harboring KRAS G12V mutant assessed as SOS1 protein degradation incubated for 24 hr by Western blot analysis; format: cell-based
[14] = biological target: T1, von Hippel-Lindau disease tumor suppressor/Son of sevenless homolog 1; assay: Protac activity at VHL/SOS1 in human A549 cells harboring KRAS […] mutant assessed as SOS1 protein degradation incubated for 24 hr by Western blot analysis; format: cell-based
[15] = biological target: von Hippel-Lindau disease tumor suppressor/Son of sevenless homolog 1 (Homo sapiens, UniProt Q07889+P40337, G12R); assay: Protac activity at VHL/SOS1 in human CAL-62 cells harboring KRAS G12R mutant assessed as SOS1 protein degradation incubated for 24 hr by Western blot analysis; format: cell-based
NCI-H358 [16] = assay: Effect of compound on human NCI-H358 cells assessed as decrease in phophorylated ERK level at 1 uM and measured after 6 to 24 hr by Western blot analysis; format: functional, cell-based; conditions: time 6-24 hrs
[17] = Effect of compound on human ASPC1 cells harboring KRAS G12D mutant assessed as inhibition of ERK phosphorylation incubated for 24 hr by Western blot analysis; format: functional, cell-based; conditions: ASPC1, 24 h
NCI-H358 [18] = assay: Effect of compound on human NCI-H358 cells stimulated with EGF assessed as decrease in KRAS-GTP level incubated for 24 hr by RAS-G-LISA assay; format: functional, cell-based
[19] = Half life in BALB/c mouse at 10 mg/kg, ip measured after 24 hrs by LC-MS/MS analysis; format: ADME, organism-based; conditions: in vivo
[20] = Tmax in BALB/c mouse at 10 mg/kg, ip measured after 24 hrs by LC-MS/MS analysis; format: ADME, organism-based; conditions: in vivo
[21] = Cmax in BALB/c mouse at 10 mg/kg, ip measured after 24 hrs by LC-MS/MS analysis; format: ADME, organism-based; design: dose 10 mg/kg, time 24 hrs, route ip; conditions: in vivo
[22] = AUClast in BALB/c mouse at 10 mg/kg, ip measured after 24 hrs by LC-MS/MS analysis; format: ADME, organism-based; design: dose 10 mg/kg, time 24 hrs, route ip; conditions: in vivo
[23] = Observed MRT (infinity) in BALB/c mouse at 10 mg/kg, ip measured after 24 hrs by LC-MS/MS analysis; format: ADME, organism-based; conditions: in vivo
NCI-H358 [24] = assay: Antitumor activity against human NCI-H358 cells xenografted in BALB/c nude mouse assessed as tumor growth inhibition at 10 mg/kg/day, ip incubated for 21 days; format: functional; conditions: NCI-H358, 504 h, time 21 day, read-out: TGI
NCI-H358 [25] = assay: Antitumor activity against human NCI-H358 cells xenografted in BALB/c nude mouse assessed as tumor growth inhibition at 20 mg/kg/day, ip incubated for 21 days; format: functional; conditions: NCI-H358, 504 h, time 21 day, read-out: TGI
[26] = Toxicity in BALB/c nude mouse xenografted with human NCI-H358 cells assessed as effect on body weight at 10 to 20 mg/kg/day, ip for 21 days and measured every 3 day; format: organism-based; conditions: in vivo, 504 h, dose 10-20 mg/kg/day, time 21 day
Mus musculus [27] = assay: In vivo degradation of SOS1 in BALB/c nude mouse xenografted with human NCI-H358 cells at 20 to 50 mg/kg, IT incubated for 21 days by immunohistochemistry analysis; format: functional, organism-based; conditions: dose 20-50 mg/kg, time 21.0 day

## Cc1cc(Cn2c(N3CC4(CNC4)C3)nc3c(N4CCN(CCCCCCCCC(=O)N[C@H](C(=O)N5C[C@H](O)C[C@H]5C(=O)N[C@@H](C)c5ccc(-c6scnc6C)cc5)C(C)(C)C)CC4)cc(Cl)cc32)cc(C)c1F
[1]
  Activity: Active
[2]
  DC50: 98.4 nM
[3]
  Activity: Active
Mus musculus [4]
  Activity: Active
Homo sapiens [5]
  Activity: Active
[6]
  Kd: 56 nM
[7]
  Kd: 3.7 nM
Homo sapiens [8]
  Ratio: 15.1
[9]
  Activity: Active
ASPC1
  IC50: 307 nM
SK-LU-1
  IC50: 115 nM
SW-620
  IC50: 199 nM
[10]
  DC50: 98 nM
[11]
  DC50: 255 nM
[12]
  DC50: 119 nM
[13]
  DC50: 125 nM
[14]
  DC50: 22 nM
[15]
  DC50: 126 nM
NCI-H358 [16]
  Activity: Active
[17]
  IC50: 72.3 nM
NCI-H358 [18]
  Activity: Active
[19]
  half-life: 8.64 h
[20]
  Tmax: 0.25 h
[21]
  Cmax: 1220 ng/mL
[22]
  AUC(0-t) at 24 h: 3900 ng·h/mL
[23]
  MRT inf: 10.2 h
NCI-H358 [24]
  inhibition in vivo at 10 mg/kg/day: 72.5%
NCI-H358 [25]
  inhibition in vivo at 20 mg/kg/day: 86.1%
[26]
  Activity: Non-Toxic
Mus musculus [27]
  Activity: Active
